Here are results for 4 molecules from patent publication US7491705B2, “Alpha-ketoamide derivative, and production method and use thereof” (Senju Pharmaceutical Co., Ltd., priority 2003, dated 2009).

As usually defined, the Solubility is the dissolved amount per volume that the medium holds. Lower therefore signals a poorly soluble substance. The Cmax is the maximum level reached in the sampled fluid or tissue. As usually defined, the Papp A→B is the apparent permeability from the apical to the basolateral side of a cell layer. The low end stands for slow passage, the high end for fast passage.

Molecules are shown by their SMILES. Values after ≈ are worked out from the molar mass of the structure shown.

Data set [1] can be described thus: Solubility in 10 mM phosphate buffer (pH 7.0). It is filed as physicochemical. The method, then:
Solubility of the compounds of the present invention in 10 mM phosphate buffer (pH 7.0) was measured.

The nature of data set [2]: Partition coefficient using IAM column. The format is physicochemical. Conditions: IAM Fast Screening Mini-Column; Dulbecco's phosphate buffer (pH 7.4). The method, then: Analysis by HPLC system was carried out under the conditions given below, and retention time of each substance was measured. • Column: IAM Fast Screening Mini-Column (Regis Technologies, Inc.) • Mobile phase: Dulbecco's phosphate buffer (pH 7.4) • Detection wavelength: 250 nm • Column temperature: room temperature • Injection amount: 5.0 to 20 μL • Flow rate: 0.5 mL/min • Sample solution: 5 mg of sample was dissolved in 100 μL of acetonitrile, and a mobile phase was added to make 1 mL of a sample solution.
The measured value was inserted into the following formula, and the partition coefficient (K′ IAM) was calculated. k′IAM=(tR−t0)/t0 t0: retention time of the peak derived from acetonitrile tR: retention time of the peak of the sample

The nature of data set [3]: Transportation rate into blood after oral administration. The format is in vivo, Macaca fascicularis (crab-eating monkey). The settings on record: cynomolgus monkey, 10 mg/kg, Macaca fascicularis, plasma; for AUC(0-t): read-out: AUC 0→4 hr. The method, then:
The compound of the present invention was administered orally to Macaca fascicularis (crab-eating monkey) at a dose of 10 mg/kg. The blood was collected with the lapse of time, and the concentration of each compound in the plasma was measured.

The nature of data set [4]: in vitro. The settings on record: human, Caco-2.
Procedure: (§1) As a culture medium for the incubation, Dulbecco's modified Eagle's minimum essential medium (GIBCO BRL) supplemented with 10% fetal calf serum (GIBCO BRL), antibiotic-antimycotic mixture, liquid (GIBCO BRL), non-essential amino acid solution (GIBCO BRL) and 2 mmol/L L-glutamine (GIBCO BRL) was used. […] Propranolol was used as a positive control, and ^14C-mannitol was used as a negative control. LC-MS/MS was used for quantitative analysis of samples, and a liquid scintillation counter was used for quantitative analysis of ^14C-mannitol.
(§2) Papp: apparent permeation coefficient (cm/sec)
δQ/δt: permeation velocity (pmol/min)
A: area of monolayer cell=0.33 cm^2
(§3) C0: initial concentration at apical membrane side (pmol/mL)
The test system of data set [5] is ganglion cells of retina. The data set is described as follows: Rat retinal ischemia reperfusion injury. The format is in vivo. The settings on record: 100 mg/Kg oral, 15 minutes before ischemia and immediately after release, 7 days after reperfusion, P<0.05 vs control. The method, then: Male SD rats (body weight: 150-200 g, purchased from Charles River Japan, Inc.) were used. For anesthesia, a mixture of equivalent amounts of 50 mg/mL ketamine injection and 20 mg/mL xylazine injection was administered intramuscularly at 1.0 mL/Kg body weight into the femora of the rats 15 minutes before ischemia. To achieve ischemia, the optic nerve including central retinal artery was ligated using a Sugita Clip minitype (No. 98), and the blood flow was blocked for 55 minutes. Such ligation was released 55 minutes after the above ligation, and blood flow was made to run again into retina (hereinafter, referred to as ischemia reperfusion). For normal group, central retinal artery was only exposed and ischemia was not set up. After 7 days from reperfusion in ischemia, a tissue specimen was prepared. For preparation of the tissue specimen, an excess amount of pentobarbital solution was intraperitoneally administered to sacrifice the animal, and eyeball was enucleated. The enucleated eyeball was dipped and fixed for 24 hours in a fixing solution of 2% paraformaldehyde and 2.5% glutaraldehyde (0.1 M phosphate buffer, pH 7.4). […] The stained sections were observed under an optical microscope, and ganglion cells of retina per 0.25 mm width of retina section at 1-2 mm from the center of the optic disc were counted. […]

For data set [6], the system named is Caco-2 cells. As to the kind of experiment: Permeability test with Caco-2 cells. Conditions: apical pH 6.5 → basolateral pH 7.4; 10 μm sample; 37° C. For orientation: Caco-2 monolayers are a common model of the intestinal barrier.
Procedure: as §1, §2
δQ/δt: permeation velocity (pmol/min)
A: area of monolayer cell=0.33 cm^2
as §3

In data set [1], `COCCOC(=O)N[C@@H](CC(C)C)C(=O)N[C@@H](Cc1ccccc1)C(=O)C(=O)NC1CC1` [Compound 4, ((1S)-1-((((1S)-1-Benzyl-2,3-dioxo-3-(cyclopropylamino)propyl)amino)carbonyl)-3-methylbutyl)carbamic acid 2-methoxyethyl ester] displayed a Solubility of 1300 µg/mL (≈ 2900 µM). In addition, the “IAM (Log k′IAM)” value in data set [2] came out at 1.20. In data set [3], the concentration peaked (Cmax) at 1200 nM and the AUC(0-t) was 1.9 µM·h. In data set [4], this molecule yielded a Papp A→B at 10 μm of 2.7 ×10⁻⁶ cm/s.

For `COCCOCCOC(=O)N[C@@H](CC(C)C)C(=O)N[C@@H](Cc1ccccc1)C(=O)C(=O)NC1CC1` [Compound 17, ((1S)-1-((((1S)-1-Benzyl-2,3-dioxo-3-(cyclopropylamino)propyl)amino)carbonyl)-3-methylbutyl)carbamic acid 5-methoxy-3-oxapentyl ester], in data set [1], the Solubility stood at 650 µg/mL (≈ 1320 µM). Also, in data set [2], the “IAM (Log k′IAM)” value stood at 1.27. In data set [3], the concentration peaked (Cmax) at 1100 nM and the AUC(0-t) was determined as 2.4 µM·h. In addition, in data set [5], the “Ganglion cell count after retinal ischemia reperfusion” value is listed as “significantly suppressed the decrease”.

On to `CC(C)NCC(O)COc1cccc2ccccc12` (stereo not shown) [Propranolol, reference compound], for which, in data set [2], the “IAM (Log k′IAM)” value turned out to be 1.95. In data set [4], the Papp A→B at 10 μm is 8.5 ×10⁻⁶ cm/s.

In the case of `OCC(O)C(O)C(O)C(O)[14CH2]O` (stereo not shown) [^14C-Mannitol, ^14C-mannitol], the “Caco-2 Papp(a−b)” value in data set [6] is 0.6 (cms^−1) × 10^−6.
